# From patent US10969382B2, “Systems and methods for assessing data collected from an electrically active cell culture” (Axion BioSystems, Inc., priority 2015, dated 2021)
# Entries after “also recorded” stand apart in the source; their conditions may differ.
# Tested on: cardiomyocyte culture
# Assay: Global conduction velocity (GCV) of beat propagation measured on a microelectrode array
# Assay type: cell-based
# Settings: increasing flecainide concentration; FIG. 8C
# Description: example, within 30 ms). FIG. 6A is a representation of an array of electrodes 22 of an exemplary well of a MEA 20 having electrodes 22 spaced 200 μm from one another in the vertical and horizontal directions. It is to be appreciated that the number of electrodes 22 and the spacing shown in FIG. 6A are for example purposes only and greater or fewer electrodes 22 can be used and the spacing can also differ from what is shown. […] The beat timestamps, or arrival times, on the neighboring beat receiving electrodes can be used to generate a data array of delay times, as shown in Table 1. […] For the exemplary beat shown in Table 1, the beat starting electrode 30 is represented by the data point in column 1, row 2. The delay time (tdi) at each electrode 22 is the difference between the beat arrival time (ti) on that particular beat receiving electrode 22 and the beat start time, to, at the beat starting electrode 30. tdi=ti−t0 The velocity at which a beat propagates through the cellular network, or the conduction velocity, is a useful parameter for assessing a cardiomyocyte culture. However, the conduction velocity can vary depending upon the location within the cell culture, and thus it is another example of a parameter that is subject to spatial variability. […]
structure (smiles),measurement,value
O=C(NCC1CCCCN1)c1cc(OCC(F)(F)F)ccc1OCC(F)(F)F (stereo not shown) [flecainide],conduction velocity using the GCV method,systematically reduced; also recorded: slows
